Read-outs that look alike come from different tables or passages of the source.
Experiments:
NMDA = assay: In vivo NMDA-induced lethality in mice; design: species or system Male Charles River CF1 mice; conditions: for minimal effective dose: Mus musculus, 20 min, read-out: MED
Method: A typical receptor substance is characterized by N-methyl-D-aspartic acid (NMDA).
Male Charles River CF1 mice held in the laboratory for a minimum of three days were housed, 12 per cage, on sawdust bedding in clear plastic boxes with wire mesh lids. Animals were allowed full access to feed and water prior to testing.
Unless otherwise specified, all test compounds were formulated in dimethylsulfoxide (DMSO) and diluted to a 5% DMSO/sterile water solution by volume. Dosing began at 160 mg/kg. If any significant activity was detected, the test drug dose was divided in half until no more activity was detected. All test compounds were administered using the intraperitoneal injection (i.p.) route at a volume of 0.01 cc/gm.
Five mice were taken from the plastic cages, dosed with the test compound and placed individually in clear plastic observation cages. After a 30 minute drug absorption period, the mice were injected intra-peritoneally with 200 mg/kg of NMDA. This dose of NMDA produces death in more than 95% of control-treated animals. Twenty minutes after the NMDA injection the animals were scored as dead or alive. Data are reported as the minimum effective dose (MED) to block NMDA-induced lethality. Protection from lethality is met by the survival of at least three of the five animals. Data for AP5 and AP7, known excitatory amino acid antagonists, are provided for comparison.

NMDA receptors = assay: NMDA-induced seizures in neonatal rats; assay type: in vivo, neonatal (7 to 8 days old) Sprague-Dawley rats; conditions: lowest dose preventing NMDA-induced seizures in at least 3 of 5 neonatal rats; test drug i.p. in saline 30 min before NMDA 20 mg/kg i.p.; observed 30 min
Method: In another experiment, male or female neonatal (7 to 8 days old) Sprague-Dawley rats were removed from the dam and placed in plastic observation chambers that were maintained at 30-32°C. All test drugs were dissolved in normal saline. Activation of NMDA receptors in these rats leads to a readily observable generalized motor seizure in over 95% of the animals.
Animals were injected by the intraperitoneal route with the test drug (1 ml/100 g of body weight) and observed for a 30 minute period for seizure (potential agonist) activity. They were then injected with NMDA at a dose of 20 mg/kg body weight i.p. to test for antagonist activity. […] Generally, five animals were used at each dose of compound. […] The minimum effective dose was the lowest test dose which prevented NMDA-induced seizures in at least three out of five animals.

[1] = minimum effective dose to block NMDA-induced lethality (survival of at least 3 of 5 mice), test compound i.p. 30 min before 200 mg/kg NMDA i.p., scored 20 min after NMDA

Compound	minimal effective dose (NMDA; [1]) [mg/kg]	further results
O=C(O)[C@H]1C[C@@H](CCc2nn[nH]n2)CCN1 (racemic) [Example 1, cis-(±)-4-[2-(1(2)H-Tetrazol-5-yl)ethyl]-2-piperidinecarboxylic acid]	20	
O=C(O)[C@H]1C[C@@H](CCCc2nn[nH]n2)CCN1 (racemic) [Example 2, cis-(±)-4-[3-(1(2)H-Tetrazol-5-yl)propyl]-2-piperidinecarboxylic acid]	10	
O=C(O)[C@H]1C[C@@H](Cc2nn[nH]n2)CCN1 (racemic) [Example 3, cis-(±)-4-[(1(2)H-Tetrazol-5-yl)methyl]-2-piperidinecarboxylic acid]	10	
O=C(O)C1C/C(=C\c2nn[nH]n2)CCN1 (racemic) [Example 4, Z-(±)-4-[(1(2)H-Tetrazol-5-yl)methylidene]-2-piperidinecarboxylic acid]	20	
CCCCOC(=O)[C@H]1C[C@@H](Cc2nn[nH]n2)CCN1 (racemic) [Example 5, Butyl cis-(±)-4-[(1(2)H-tetrazol-5-yl)methyl]-2-piperidinecarboxylate]	160	
CCOC(=O)C1CC(Cc2nn[nH]n2)CCN1 (racemic) [Example 6, Ethyl cis-(±)-4-[(1(2)H-tetrazol-5-yl)methyl]-2-piperidinecarboxylate]		MED (NMDA receptors): 200 mg/kg
NC(CCCP(=O)(O)O)C(=O)O (stereo not drawn) [AP5, reference compound]	80	
NC(CCCCCP(=O)(O)O)C(=O)O (stereo not drawn) [AP7, reference compound]		minimal effective dose (NMDA): 160 mg/kg
cis-(±)-4-[(1(2)-Methyl-1(2)H-tetrazol-5-yl)methyl]-2-piperidinecarboxylic acid [Example 7]		MED (NMDA; [1]): 160 mg/kg

Source: patent publication EP0330353A1, “Tetrazole excitatory amino acid receptor antagonists” (ELI LILLY AND COMPANY, priority 1988, dated 1989)
